From PMC8922281, “Synthesis and In Vitro Biological Evaluation of Quinolinyl Pyrimidines Targeting Type II NADH-Dehydrogenase (NDH-2)” (ACS Infectious Diseases, 2022)
Values after ≈ are worked out from the molar mass of the structure shown. Values joined by “and” are separate entries in the source; they are usually repeats but may differ in a detail not shown here. Equal entries are not always repeated. Where two headings read alike, the source gives them in different places.

Legend:
[1] = tested on: P. aeruginosa (PAO1, wild-type); assay: MIC on ESKAPE pathogens, P. aeruginosa wild-type; assay type: cell-based; settings: Pseudomonas aeruginosa, PAO1, P. aeruginosa PAO1, wild-type; read-out: MIC Pa WT
[2] = tested on: E. coli (ATCC 25922, wild-type); assay: MIC on ESKAPE pathogens, E. coli wild-type; assay type: cell-based; settings: Escherichia coli
[3] = tested on: A. baumannii (ATCC 19606, wild-type); assay: MIC on ESKAPE pathogens, A. baumannii; assay type: cell-based; settings: Acinetobacter baumannii
[4] = tested on: P. aeruginosa (PAO750 efflux-defective mutant, isogenic to PAO1); assay: microbe, parasite or virus in culture; assay type: cell-based; settings: Pseudomonas aeruginosa, PAO1, read-out: MIC Pa efflux
[5] = tested on: E. coli (D22, lpxC mutant, drug-hypersensitive); assay: microbe, parasite or virus in culture; assay type: cell-based; settings: Escherichia coli, read-out: MIC Ec D22
MtNDH-2 = MtNDH-2 (Mycobacterium tuberculosis, UniProt P95160); assay: biochemical; parameters: species or system M. tuberculosis; settings: MtNDH-2 IC50
Sequence of MtNDH-2 (P95160 2-463, added parts left off): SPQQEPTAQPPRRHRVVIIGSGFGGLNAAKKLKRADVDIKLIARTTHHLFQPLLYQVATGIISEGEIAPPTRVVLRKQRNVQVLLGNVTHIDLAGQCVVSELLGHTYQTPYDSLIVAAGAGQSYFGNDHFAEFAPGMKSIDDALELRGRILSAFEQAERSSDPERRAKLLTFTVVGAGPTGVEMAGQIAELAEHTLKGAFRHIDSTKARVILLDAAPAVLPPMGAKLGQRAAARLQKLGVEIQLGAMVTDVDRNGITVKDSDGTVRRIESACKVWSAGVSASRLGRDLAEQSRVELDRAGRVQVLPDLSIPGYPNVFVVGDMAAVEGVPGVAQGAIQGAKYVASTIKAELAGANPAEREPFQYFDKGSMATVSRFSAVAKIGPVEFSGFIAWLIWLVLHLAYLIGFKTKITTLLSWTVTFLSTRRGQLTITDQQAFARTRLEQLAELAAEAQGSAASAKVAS

[6] = tested on: K. pneumonia (ATCC 13833, wild-type); assay: MIC on ESKAPE pathogens, K. pneumoniae
[7] = tested on: E. coli (ΔtolC efflux-defective mutant, isogenic to ATCC 25922); assay: microbe, parasite or virus in culture; assay type: cell-based; settings: Escherichia coli, ATCC25922, read-out: MIC Ec ΔtolC
[8] = tested on: M. tuberculosis strain H37Rv (ATCC 25618); assay: MIC on M. tuberculosis by resazurin reduction microplate assay (REMA); assay type: cell-based; settings: Mycobacterium tuberculosis, M. tuberculosis H37Rv, read-out: MIC Mtb
[9] = tested on: S. aureus (ATCC 29213, wild-type); assay: MIC on ESKAPE pathogens, S. aureus; assay type: cell-based; settings: Staphylococcus aureus, ATCC29213
MsNDH-2 = MsNDH-2 (Mycolicibacterium smegmatis, UniProt A0QYD6); assay: Inhibition of MsNDH-2 (NADH oxidation with menadione, absorbance at 340 nm); assay type: biochemical, M. smegmatis
Sequence of MsNDH-2 (A0QYD6 1-457): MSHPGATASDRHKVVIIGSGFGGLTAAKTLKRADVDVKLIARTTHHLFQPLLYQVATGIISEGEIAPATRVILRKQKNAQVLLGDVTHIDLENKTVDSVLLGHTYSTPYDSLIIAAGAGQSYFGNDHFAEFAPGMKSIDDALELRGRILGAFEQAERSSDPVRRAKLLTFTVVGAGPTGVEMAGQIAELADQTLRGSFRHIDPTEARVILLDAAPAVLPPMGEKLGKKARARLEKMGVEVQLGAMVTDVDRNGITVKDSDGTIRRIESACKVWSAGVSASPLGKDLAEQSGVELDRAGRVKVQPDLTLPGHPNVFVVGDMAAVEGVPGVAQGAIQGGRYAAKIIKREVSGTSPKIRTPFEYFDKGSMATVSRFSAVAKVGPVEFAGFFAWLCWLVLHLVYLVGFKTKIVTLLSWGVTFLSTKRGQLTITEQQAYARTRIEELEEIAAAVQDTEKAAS

[10] = Cytotoxicity on the MRC-5 cell line (resazurin); assay type: cell-based; settings: human, MRC-5SV2 cells, MRC-5SV2, 3 days
Description: MRC-5SV2 cells were cultured in Earl’s MEM + 5% FCSi. Assays were performed in 96-well microtiter plates, each well containing about 10^4 cells/well. After 3 days of incubation with or without compounds, cell viability was assessed fluorimetrically after the addition of resazurin (λex 550 nm, λem 590 nm). The results were expressed as % reduction in cell growth/viability compared to untreated control wells and CC50 was determined. Testing/retesting strategy was as described above for HepG2 cells.

[11] = tested on: E. coli MG1655 ΔtolC resistant mutants; assay: microbe, parasite or virus in culture; assay type: cell-based; settings: for MIC: Escherichia coli
[12] = ATCC25922, E. coli ATCC 25922, wild-type, read-out: MIC Ec WT
[13] = ATCC19606, A. baumannii ATCC 19606, wild-type, read-out: MIC Ab WT
[14] = 95% confidence interval in parentheses, 50 nM enzyme, 50 μM menadione, >100: no significant inhibition at 100 μM
[15] = same IC50 given in μg/mL to assist comparisons with MICs

SMILES	MIC [1] [µg/mL]	MIC [2, 12] [µg/mL]	MIC [3, 13] [µg/mL]	MIC [4] [µg/mL]	MIC [5] [µg/mL]	IC50 (MtNDH-2)	MIC Kp WT [6] [µg/mL]	MIC [7] [µg/mL]	MIC [8] [µg/mL]	MIC [9] [µg/mL]	IC50 (MsNDH-2; [14]) [µM]	IC50 (MsNDH-2; [15]) [µM]	IC50 at 3 days ([10]; resazurin) [µM]	IC50 at 3 days ([10]; value in parentheses) [µg/mL]	also measured
Nc1ccc2nc(-c3ccc(F)cc3)cc(N)c2c1 [Compound 6, 2-(4-Fluorophenyl)quinoline-4,6-diamine]	> 64	> 64	> 64	64 (≈ 253 µM)	64 (≈ 253 µM)	1.2 µM and 1.18 µM	>64	> 64	12.5 (≈ 49.4 µM)	64 (≈ 253 µM)	–	–	–	–	–
Nc1nc(Cl)cc(Nc2ccc3nc(-c4ccc(F)cc4)cc(N)c3c2)n1 [Compound 7, N^6-(2-Amino-6-chloropyrimidin-4-yl)-2-(4-fluorophenyl)quinoline-4,6-diamine]	> 128	> 128	2 (≈ 5.25 µM)	16 (≈ 42 µM)	16 (≈ 42 µM)	–	>128	64 (≈ 168 µM)	4.7 (≈ 12.3 µM)	4 (≈ 10.5 µM)	3.1	3.15	1.1	0.4	–
Nc1nc(Nc2ccc3nc(-c4ccc(F)cc4)cc(N)c3c2)cc(N2CCNCC2)n1 [Compound 8a, N^6-(2-Amino-6-(piperazin-1-yl)pyrimidin-4-yl)-2-(4-fluorophenyl)quinoline-4,6-diamine]	8 (≈ 18.6 µM)	8 (≈ 18.6 µM)	> 64	4 (≈ 9.29 µM)	4 (≈ 9.29 µM)	3.1 µM and 3.02 µM	>64	–	> 43	32 (≈ 74.3 µM)	9.7	9.76	24	10	MIC ([11]; MG1655, read-out: MIC mutant, mutant CH4954 raised against 8a, basS (pmrB) Glu121Lys waaY (rfaY) Asp160fs): 8 µg/mL (≈ 18.6 µM); MIC ([11]; MG1655, read-out: MIC mutant, mutant CH4955 raised against 8a, basR (pmrA) Gly53Glu): 16 µg/mL (≈ 37.2 µM); MIC ([11]; MG1655, read-out: MIC mutant, mutant CH4956 raised against 8a, basS (pmrB) Leu10Arg): 8 µg/mL (≈ 18.6 µM); MIC ([11]; MG1655, read-out: MIC mutant, mutant CH4957 raised against 8a, asmA Asn295fs waaP (rfaP) Glu258 stop codon): 16 µg/mL (≈ 37.2 µM); MIC ([11]; MG1655, read-out: MIC mutant, mutant CH5084 raised against 8a, basS (pmrB) Ala159Pro preB Ala13fs): 16 µg/mL (≈ 37.2 µM); fold increase of MIC ([11]; mutant CH4954 vs parent E. coli MG1655 ΔtolC): 2; fold increase of MIC ([11]; mutant CH4955 vs parent E. coli MG1655 ΔtolC): 4; fold increase of MIC ([11]; mutant CH4956 vs parent E. coli MG1655 ΔtolC): 2; fold increase of MIC ([11]; mutant CH4957 vs parent E. coli MG1655 ΔtolC): 4; fold increase of MIC ([11]; mutant CH5084 vs parent E. coli MG1655 ΔtolC): 4
Nc1nc(Nc2ccc3nc(-c4ccc(F)cc4)cc(N)c3c2)cc(N2CCOCC2)n1 [Compound 8b, N^6-(2-Amino-6-morpholinopyrimidin-4-yl)-2-(4-fluorophenyl) quinoline-4,6-diamine]	≥ 64	64 (≈ 148 µM)	16 (≈ 37.1 µM)	32 (≈ 74.2 µM)	16 (≈ 37.1 µM)	–	64 (≈ 148 µM)	16 (≈ 37.1 µM)	–	32 (≈ 74.2 µM)	> 100	> 99.7	–	–	–
CN1CCN(c2cc(Nc3ccc4nc(-c5ccc(F)cc5)cc(N)c4c3)nc(N)n2)CC1 [Compound 8c, N^6-(2-Amino-6-(4-methylpiperazin-1-yl)pyrimidin-4-yl)-2-(4-fluorophenyl)quinoline-4,6-diamine]	64 (≈ 144 µM)	128 (≈ 288 µM)	> 128	16 (≈ 36 µM)	16 (≈ 36 µM)	6.2 µM and 6.3 µM	>128	16 (≈ 36 µM)	15.6 (≈ 35.1 µM)	128 (≈ 288 µM)	40	40.5	–	–	–
CC(C)N1CCN(c2cc(Nc3ccc4nc(-c5ccc(F)cc5)cc(N)c4c3)nc(N)n2)CC1 [Compound 8d, N^6-(2-Amino-6-(4-isopropylpiperazin-1-yl)pyrimidin-4-yl)-2-(4-fluorophenyl)quinoline-4,6-diamine]	64 (≈ 135 µM)	64 (≈ 135 µM)	> 128	32 (≈ 67.7 µM)	32 (≈ 67.7 µM)	3.6 µM	128 (≈ 271 µM)	32 (≈ 67.7 µM)	7.6 (≈ 16.1 µM)	128 (≈ 271 µM)	19	18.8	–	–	–
Nc1nc(Nc2ccc3nc(-c4ccc(F)cc4)cc(N)c3c2)cc(N2CCN(CCO)CC2)n1 [Compound 8e, 2-(4-(2-Amino-6-((4-amino-2-(4-fluorophenyl)quinolin-6-yl)amino)pyrimidin-4-yl)piperazin-1-yl)ethan-1-ol]	64 (≈ 135 µM)	–	–	> 128	32 (≈ 67.4 µM)	6.6 µM and 6.53 µM	128 (≈ 270 µM)	32 (≈ 67.4 µM)	16 (≈ 33.7 µM)	128 (≈ 270 µM)	> 100	> 99	–	–	MIC ([2]; ATCC25922, read-out: MIC Ec WT): > 128 µg/mL; MIC ([3]; ATCC19606, read-out: MIC Ab WT): > 128 µg/mL
CN(C)C1CCN(c2cc(Nc3ccc4nc(-c5ccc(F)cc5)cc(N)c4c3)nc(N)n2)CC1 [Compound 8f, N^6-(2-Amino-6-(4-(dimethylamino)piperidin-1-yl)pyrimidin-4-yl)-2-(4-fluorophenyl)quinoline-4,6-diamine]	32 (≈ 67.7 µM)	> 128	> 128	–	32 (≈ 67.7 µM)	5.6 µM and 5.5 µM	>128	32 (≈ 67.7 µM)	10.9 (≈ 23.1 µM)	> 128	> 100	> 99.5	–	–	–
NCC1CCN(c2cc(Nc3ccc4nc(-c5ccc(F)cc5)cc(N)c4c3)nc(N)n2)CC1 [Compound 8h, N^6-(2-Amino-6-(4-(aminomethyl)piperidin-1-yl)pyrimidin-4-yl)-2-(4-fluorophenyl)quinoline-4,6-diamine]	4 (≈ 8.72 µM)	64 (≈ 140 µM)	> 128	8 (≈ 17.4 µM)	8 (≈ 17.4 µM)	–	>128	16 (≈ 34.9 µM)	> 46	32 (≈ 69.8 µM)	6.9	6.98	8	3.7	–
Nc1nc(Nc2ccc3nc(-c4ccc(F)cc4)cc(N)c3c2)cc(N2CCCC(O)C2)n1 (stereo not drawn) [Compound 8o, 1-(2-Amino-6-((4-amino-2-(4-fluorophenyl)quinolin-6-yl)amino)pyrimidin-4-yl)piperidin-3-ol]	> 64	32 (≈ 71.8 µM)	32 (≈ 71.8 µM)	32 (≈ 71.8 µM)	16 (≈ 35.9 µM)	3.4 µM and 3.37 µM	>64	16 (≈ 35.9 µM)	10.2 (≈ 22.9 µM)	64 (≈ 144 µM)	–	–	–	–	–
Nc1nc(Nc2ccc3nc(-c4ccc(F)cc4)cc(N)c3c2)cc(N2CCC(O)CC2)n1 [Compound 8p, 1-(2-Amino-6-((4-amino-2-(4-fluorophenyl)quinolin-6-yl)amino)pyrimidin-4-yl)piperidin-4-ol]	> 64	64 (≈ 144 µM)	64 (≈ 144 µM)	> 64	32 (≈ 71.8 µM)	5.1 µM and 5.16 µM	>64	32 (≈ 71.8 µM)	16.5 (≈ 37 µM)	64 (≈ 144 µM)	–	–	–	–	–
Nc1nc(Nc2ccc3nc(-c4ccc(F)cc4)ccc3c2)cc(N2CCNCC2)n1 [Compound 21, N^4-(2-(4-Fluorophenyl)quinolin-6-yl)-6-(piperazin-1-yl)pyrimidine-2,4-diamine]	> 64	16 (≈ 38.5 µM)	32 (≈ 77 µM)	4 (≈ 9.63 µM)	16 (≈ 38.5 µM)	–	64 (≈ 154 µM)	8 (≈ 19.3 µM)	22.3 (≈ 53.7 µM)	8 (≈ 19.3 µM)	32	31.3	8	3.3	–
Fc1ccc(-c2ccc3cc(Nc4cc(N5CCNCC5)ncn4)ccc3n2)cc1 [Compound 23, 2-(4-Fluorophenyl)-N-(6-(piperazin-1-yl)pyrimidin-4-yl)quinolin-6-amine]	> 64	> 64	64 (≈ 160 µM)	4 (≈ 9.99 µM)	16 (≈ 40 µM)	–	64 (≈ 160 µM)	8 (≈ 20 µM)	7.1 (≈ 17.7 µM)	8 (≈ 20 µM)	24	24	7.9	3.2	–
